Experiments:
[1] = test system: acute lung injury caused by the lipopolysaccharide; assay: LPS acute lung injury (ALI) model; format: in vivo, Wistar rats
Description: And each of the modeling group, the LPS+DEX Group and LPS+SQ Group was again divided into 3 time phasing groups, that is, a one-hour group, a two-hour group, and a four-hour group. There are 10 groups in total, 6 […] per group in this experiment.
The 18 rats of the LPS+DEX Group were injected abdominally with 50 mg/kg Dexamethasone 2 hours before modeling. The 18 rats of the LPS+NS Group were injected with physiological saline 2 hours before modeling. Except for the normal Control group, all the three above-mentioned groups were injected with LPS (4 mg/kg) in the caudal vein.
After all the animals being anaesthetized with chloral hydrate through abdominal injection at the determined time phasing point, 2 ml blood was sampled from the carotid, and centrifuged at 800 gr/min for 8 minutes. The supernatant was extracted and placed at −20° C. in a refrigerator for future usage. The chest was opened and the lower lobes of the right lung were sampled They were placed in the EP tubes treated with DEPC solution and immediately put at −70° C. in a refrigerator for the total RNA extraction. The upper lobes of the right lung were sampled and dipped in 10% formaldehyde solution to fix. The left lungs were taken for the ratio of wet/dry weight measurement.
4. At the corresponding timing point, the animal lung tissues were taken and observed with human eyes and under the microscope using HE Staining Method. The ratio of tissues wetdry weight was also measured.

[2] = influence upon the lethal effect of MTX; format: in vivo, mice; conditions: MTX 22 mg/kg i.p.; composition 0.2 ml i.p. daily for eight days
Description: 2) The mice were divided into two groups and inoculated the tumor cells according to the method above. […] On the 4th day of the administration, the mice were inoculated tumor cell and intraperitoneally injected 22 mg/kg aqueous solution of MTX after 6 hours of inoculation. Within 10 days after MTX injection, the death rate of animals was observed and the survival rates of the two groups of animals were compared.

[3] = LPS 4 mg/kg, DEX 50 mg/kg 2 hours before, SQ 2 ml daily 1 week before

| SMILES | Pathological Classification of lung injury: cases Light, 1-hour ([1]; LPS 4 mg/kg caudal vein, DEX 50 mg/kg abdominally 2 hours before, SQ 2 ml abdominally daily 1 week before) | Lung W/D Ratio, 1 h [1, 3] | Lung W/D Ratio, 2 h [1, 3] | Lung W/D Ratio, 4 h [1, 3] | Pathological Classification of lung injury: cases Light, 2-hour [1, 3] | Pathological Classification of lung injury: cases Light, 4-hour [1, 3] | Pathological Classification of lung injury: cases Middle, 1-hour [1, 3] | Pathological Classification of lung injury: cases Middle, 2-hour [1, 3] | Pathological Classification of lung injury: cases Middle, 4-hour [1, 3] | Pathological Classification of lung injury: cases Severe, 1-hour [1, 3] | Pathological Classification of lung injury: cases Severe, 2-hour [1, 3] | Pathological Classification of lung injury: cases Severe, 4-hour [1, 3] | symptoms (tachypnea, lips cyanosis, mental wilting) after LPS (in words) ([1]; compared with LPS+NS Group) | general observation of lung tissues (in words) ([1]; same time phasing points, in comparison to Group LPS+NS) | Number of Dead Animal after administered MTX, 4th day [2] | Number of Dead Animal after administered MTX, 5th day [2] | Number of Dead Animal after administered MTX, 6th day [2] | Number of Dead Animal after administered MTX, 7th day [2] | Survival Number after 10 days [2] | Survival Rate % after 10 days [2] [%] |
| --- | --- | --- | --- | --- | --- | --- | --- | --- | --- | --- | --- | --- | --- | --- | --- | --- | --- | --- | --- | --- |
| C[C@@H]1C[C@H]2[C@@H]3CCC4=CC(=O)C=C[C@]4(C)[C@@]3(F)[C@@H](O)C[C@]2(C)[C@@]1(O)C(=O)CO [LPS + DEX, Dexamethasone] | 6 | 4.82 ± 0.23*Δ | 4.59 ± 0.19*Δ# | 4.57 ± 0.10*Δ# | 4 | 6 | 0 | 2 | 0 | 0 | 0 | 0 | relatively mild | mitigated to different extent | – | – | – | – | – | – |
| CN(Cc1cnc2nc(N)nc(N)c2n1)c1ccc(C(=O)N[C@@H](CCC(=O)O)C(=O)O)cc1 [MTX, Methotrexate] | – | – | – | – | – | – | – | – | – | – | – | – | – | – | 1 | 7 | 3 | 6 | 4 | 19.04 |

Source: US20080206374A1 (priority 2003, published 2008)
